Results published in patent publication US20250367290A1, “ENGINEERED STEM CELLS AND USES THEREOF” (Umoja Biopharma, Inc., priority 2022, published 2025).

How the values were obtained:
TagCAR-RACR iCIL cells = assay: RACR-driven differentiation and expansion of iCIL cells from Day 26 lymphoid progenitors; format: cell-based, human; details: AP21967 100 nM, no other cytokine
Source text: The RACR-system was utilized for differentiation to iPSC-derived CIL cells (iCIL cells). The iPSC cell line ATCC-BXS0117 (ATCC #ACS-1031) was differentiated into lymphoid progenitors through the STEMdiff NK cell kit (STEMCELL® Technologies, #100-0170) as described in Example 2 above, up until the Day 26 timepoint. The percentage of cells containing common lymphoid progenitors (CD45+/CD5+/CD7+), CIL precursors (CD45+/CD5−/CD7+), and early CIL cells (CD45+/CD5−/CD7+/CD56+) is seen in FIG. 3D with ˜50% of the cells presenting as CIL precursors and ˜25% of total cells presenting as early CIL cells. In this study, Day 26 cells were pelleted and placed in a CIL expansion media at 2×10^6 cells/mL containing (IL-2, IL-15, IL-21, IL-18, IL-7 in complete RPMI media: RPMI1640, 10% FBS, 1× Pen-Strep, and 1× Glutamax). […]
At Day 27, the cells were transduced with either VSV-G lentivirus with the payload of Tag (anti-FITC) CAR-P2A-FRB-P2A-RACR at an MOI 10 with 10 µg/mL of protamine sulfate or treated with 10 μg/mL or protamine sulfate alone (Mock). […] An aliquot of cells was collected weekly, counted on the Vicell Blu automated cell counter, and stained for CD16 clone 3G8, CD56 clone HCD56, CD45 clone 2D1, CD5 clone L17F12, CD7 clone CD7-6B7 and anti-FITC CAR (TagCAR) detection through FITC-AF647.

RACR-CAR+ cells = assay: Differentiation of RACR-transduced CLP into CIL cells with or without common gamma chain cytokines; format: cell-based, human
RACR-iCILs = assay: Proliferation of D47 RACR-iCILs; format: cell-based; details: rapalog 100 nM
Protocol: RACR-iCILs were generated similar to as described in FIG. 18A and FIG. 18B except without SCF and TPO included in the HP medium as described in Example 9 and FIG. 17A. Data shown are from two BE-RACR iPSC clones. At D40 RACR-iCILs were incubated for one week in a maturation medium containing IL-2, IL-7, IL-12, IL-15, IL-18 and activation beads (anti-CD2/NKp46). RACR-iCILs were then incubated with breast adenocarcinoma MDA-MB23 1 cells expressing a nuclear fluorescent protein at a 10:1 […] ratio in the presence of medium alone, cytokines (IL-2/IL-7/IL-15), or rapalog (100 nM). Cell mixtures were placed into an IncuCyte fluorescent microscope and imaged every 2 hours. The number of MDA-MB23 1 cells was quantified over time via a fluorescent marker and graphed as the ratio of MDA-MB23 1 cells compared to time 0 (time 0 is equal to one). […] RACR-iCILs were then collected, placed in fresh media, and then re-exposed to MDA-MB23 1 cells for a rechallenge (FIG. 19A). Proliferation of D47 RACR-iCILs was also evaluated in different cytokine treatments or rapalog (100 nM).

[1] = tested on: PSMA-positive human prostate cancer cells; details: DUPA-(99m) Tc; cited from earlier work
wildtype iPSCs = assay: iPSC confluency after four days of rapamycin; format: cell-based, human; details: four days of treatment
Protocol: (§1) RACR requires rapamycin for activation; however, rapamycin inhibits cell growth. To generate rapamycin resistant cells, the FKBP12 gene was knocked-out. […] In the absence of FKBP12, rapamycin cannot interact with the mTOR complex and thus loses its inhibitory capacity. The efficiency of the knockout was determined by Sanger sequencing. Con1, Con2, or Con3 indicate different electroporation conditions for CRISPR-Cas9 based editing resulting in differing levels of knockout. Phase-contrast images reveal normal iPSC morphology in both wild type and FKBP12 KO cells, FIG. 16B, right panel. The confluency of wildtype iPSCs after four days of treatment with varying doses of rapamycin with inhibition of growth at 1 nM rapamycin or higher is shown in FIG. 16C. […] The ability of clonal FKBP12 KO iPSCs to differentiate to hematopoietic progenitors (HPs) in the presence of rapamycin is shown in FIG. 16E.

FKBP12 KO iPSCs = assay: iPSC confluency during four days of rapamycin; format: cell-based, human; details: four days of treatment
Protocol: as §1

[2] = tested on: hematopoietic progenitors (CD34+/CD43+/CD45+); assay: HP differentiation phase: rapamycin requirement; format: cell-based
Protocol: RACR iPSCs (edited B2M-EF1a-RACR and knocked out for FKBP12) were cultured in media, as described in Example 9. At day 0-2, embryoid bodies (EBs) were generated from a single cell suspension of iPSCs in STEMdiff APEL 2 Medium (STEMCELL Technologies) supplemented with BMP4, FGF2, VEGF, Y27632, and +/− rapalog (RL; AP21967) or +/− rapamycin (RM). EBs were formed using plates comprising aggregates of microwells (e.g. Aggrewell™ 800 plates) at 500 iPSC/EB or 1000 iPSC/EB, as described in Example 9 and shown in FIG. 34. As shown in FIG. 35A-B, higher iPSC confluency at the start of differentiation contributes to a higher HP yield. Further, a range of 200-250 iPSC/EBs seeded in microwells is optimal to achieve the highest HP yield on day 15 (FIG. 35C).
The differentiating EBs were moved to non-tissue culture treated 6-well plates (Corning) at day 6 and fresh HP Medium was added. Every 3 days from days 3-15, half of the media was replaced with HP Medium.

iCIL cells = assay: iCIL differentiation and expansion in bioreactors; format: cell-based; details: iCIL differentiation phase
Protocol: At Day 15 of culture, the differentiated cells were continued in culture for up to 40 days for iCIL cell generation. At Day 21, the GRex bioreactor was seeded with the cells, as described in Example 13. […] Lower seeding densities on days 15 and 24 contributed to increased iCIL yields, while higher seeding densities contributed to higher iCIL yields on Days 30-33 (FIG. 39B). In another experiment, this step was repeated with two different stirred-tank bioreactors at various stages in the protocol.
Thus, Aim V was used as the base medium for the iCIL differentiation phase. Components and supplements in the Aim V medium used during the iCIL differentiation phase were tested for their effect on iCIL yield and cytotoxicity.

[3] = tested on: Burkitt's lymphoma tumor cells; assay: RACR-iCIL co-culture cytotoxicity with or without rituximab; format: cell-based; details: added to RACR-iCILs
Protocol: (§2) In a similar experiment, RACR-iCILs were cocultured with Burkitt's lymphoma tumor cells or non-Hodgkin's lymphoma tumor cells at a ratio of 2.5:1, 10:1, or 0:1, and stimulated with and without rapamycin and/or cytokines. Additional groups included rituximab. Cytotoxicity was determined by imaging cells across 40 hours, as described in Example 6.

[4] = tested on: non-Hodgkin's lymphoma tumor cells; assay: as above; format: cell-based; details: added to RACR-iCILs
Protocol: as §2

CO[C@@H]1C[C@H](C[C@H](C)C2CC(=O)[C@@H](C)/C=C(\C)[C@@H](O)[C@@H](OC)C(=O)[C@H](C)C[C@@H](C)/C=C/C=C/C=C(\C)[C@H](c3c[nH]c4c(C)cccc34)C[C@H]3CC[C@@H](C)[C@@](O)(O3)C(=O)C(=O)N3CCCC[C@H]3C(=O)O2)CC[C@@H]1O (some centres unmarked) [AP21967]
iCIL expansion and differentiation (TagCAR-RACR iCIL cells): sufficient to drive iCIL expansion in the absence of any other cytokine signaling
percent of RACR-CAR+CD56+ cells (RACR-CAR+ cells; 4 nM AP21967, all media conditions, Day 40): increase in the percent of RACR-CAR+CD56+ cells
fold change in RACR-CAR+ cells (RACR-CAR+ cells; UM729 alone (None) media plus rapalog): largest fold change in RACR-CAR+ cells
total RACR-iCILs one week after stimulation (RACR-iCILs): supported RACR-iCIL growth

O=C(O)CC[C@H](NC(=O)N[C@@H](CCC(=O)O)C(=O)O)C(=O)O [DUPA]
Kd [1]: 14 nM

CO[C@H]1C[C@@H]2CC[C@@H](C)[C@@](O)(O2)C(=O)C(=O)N2CCCC[C@H]2C(=O)O[C@H]([C@H](C)C[C@@H]2CC[C@@H](O)[C@H](OC)C2)CC(=O)[C@H](C)/C=C(\C)[C@@H](O)[C@@H](OC)C(=O)[C@H](C)C[C@H](C)/C=C/C=C/C=C/1C [rapamycin]
rapamycin dose with inhibition of growth (confluency) (wildtype iPSCs): ≥ 1 nM
rapamycin doses with robust growth (confluency) (FKBP12 KO iPSCs): up to 100 nM
lowest rapamycin concentration sufficient to produce comparable HP yields [2]: 3.1 nM
lowest rapamycin concentration sufficient to expand iCIL cells (iCIL cells): 6.2 nM

rituximab: antibody added to RACR-iCIL co-cultures with lymphoma tumor cells
further increase of tumor killing [3]: 10%
further increase of tumor killing [4]: 10%
